What follows are compounds tested on human hepatoma Huh-7 cell line harboring a HCV replicon (assay: HCV replicon assay (inhibition of viral replication, luciferase readout)). Conditions: Hepatitis C virus, 72 h, Huh-7 HCV replicon cells, 3 days incubation.
Format: cell-based
Method: The anti-HCV activity of the compounds of this invention was tested in a human hepatoma Huh-7 cell line harboring a HCV replicon. The assay comprised the following steps:
Step 1: Compound Preparation and Serial Dilution.
Serial dilution was performed in 100% DMSO in a 384-well plate. A solution containing a compound at 225-fold concentration of the starting final serial dilution concentration was prepared in 100% DMSO and 15 μL added to the pre-specified wells in column 3 or 13 of a polypropylene 384-well plate. The rest of the 384-well plate was filled with 10 μL 100% DMSO except for columns 23 and 24, where 10 μL of 500 μM a HCV protease inhibitor (ITMN-191) in 100% DMSO was added. The HCV protease inhibitor was used a control of 100% inhibition of HCV replication. The plate was then placed on a Biomek FX Workstation to start the serial dilution. The serial dilution was performed for ten cycles of 3-fold dilution from column 3 to 12 or from column 13 to 22.
Step 2: Cell Culture Plate Preparation and Compound Addition
To each well of a black polypropylene 384-well plate, 90 μL of cell media containing 1600 suspended Huh-7 HCV replicon cells was added with a Biotek uFlow Workstation. A volume of 0.4 μL of the compound solution was transferred from the serial dilution plate to the cell culture plate on a Biomek FX Workstation. The DMSO concentration in the final assay condition was 0.44%. The plates were incubated for 3 days at 37° C. with 5% CO2 and 85% humidity.
Step 3: Detection of Cytotoxicity and Inhibition of Viral Replication
a) Assessment of cytotoxicity: The media in the 384-well cell culture plate was aspirated with a Biotek EL405 plate-washer. A volume of 50 μL of a solution containing 400 nM Calcein AM in 100% PBS was added to each well of the plate with a Biotek uFlow Workstation. The plate was incubated for 30 minutes at room temperature before the fluorescence signal ([…]) was measured with a Perkin Elmer Envision Plate Reader.
b) Assessment of inhibition of viral replication: The calcein-PBS solution in the 384-well cell culture plate was aspirated with a Biotek EL405 plate-washer. A volume of 20 μL of Dual-Glo luciferase buffer (Promega, Dual-Glo Luciferase Assay Reagent, cat. #E298B) was added to each well of the plate with a Biotek uFlow Workstation. The plate was incubated for 10 minutes at room temperature. A volume of 20 μL of a solution containing 1:100 mixture of Dual-Glo Stop & Glo substrate (Promega, Dual-Glo Luciferase Assay Reagent, cat. #E313B) and Dual-Glo Stop & Glo buffer (Promega, Dual-Glo Luciferase Assay Reagent, cat. #E314B) was then added to each well of the plate with a Biotek uFlow Workstation. The plate was incubated at room temperature for 10 minutes before the luminescence signal was measured with a Perkin Elmer Envision Plate Reader.
The percent cytotoxicity was determined by calcein AM conversion to fluorescent product. The average fluorescent signal from the DMSO control wells was defined as 100% nontoxic. The individual fluorescent signal from testing compound treated well was divided by the average signal from DMSO control wells and then multiplied by 100% to get the percent viability. The percent anti-HCV replication activity was determined by the luminescence signal from the testing well compared to DMSO control wells. The background signal was determined by the average luminescence signal from the HCV protease inhibitor treated wells and was subtracted from the signal from the testing wells as well as the DMSO control wells. Following 3-fold serial dilutions, the EC50 and CC50 values were calculated by fitting % inhibition at each concentration to the following equation: % inhibition=100%/[EC50/[I])^b+1]
Where b is Hill's coefficient. See, for reference, Hill, A. V., The Possible Effects of the Aggregation of the Molecules of Hæmoglobin on its Dissociation Curves, J. Physiol. 40: iv-vii. (1910). […]
Work on `C[C@@H]1CC[C@@H](C(=O)N(c2cc(C#CC(C)(C)C)sc2C(=O)O)[C@H]2CC[C@@H](OC3CCOC3)CC2)[C@@H](O)C1` (single isomer, unassigned) [Compound 228] yielded an inhibition at 2 µM of 99.9%.
`CC1=CCC(C(=O)N(c2cc(C#CC(C)(C)C)sc2C(=O)O)[C@H]2CC[C@H](O[C@H]3CCOC3)CC2)[C@@H](C)C1` (single isomer, unassigned) [Compound 302, 5-(3,3-dimethyl-but-1-ynyl)-3-{(4,6S-dimethyl-cyclohex-3-enecarbonyl)-[4-(tetrahydro-furan-3S-yloxy)-trans-cyclohexyl]-amino}-thiophene-2-carboxylic acid] showed an inhibition at 2 µM of 100%.
With `CC1=CCC(C(=O)N(c2cc(C#CC(C)(C)C)sc2C(=O)O)[C@H]2CC[C@H](O[C@H]3CCOC3)CC2)[C@H](C)C1` (single isomer, unassigned) [Compound 303] the inhibition at 2 µM was 99.9%.
Compound `CC1=CCC(C(=O)N(c2cc(C#CC(C)(C)C)sc2C(=O)O)[C@H]2CC[C@H](O[C@@H]3CCOC3)CC2)[C@H](C)C1` (single isomer, unassigned) [Compound 305, 5-(3,3-dimethyl-but-1-ynyl)-3-{(4,6R-dimethyl-cyclohex-3-enecarbonyl)-[4-(tetrahydro-furan-3R-yloxy)-trans-cyclohexyl]-amino}-thiophene-2-carboxylic acid] has an inhibition at 2 µM of 100%.
`CC1=CCC(C(=O)N(c2cc(C#CC(C)(C)C)sc2C(=O)O)[C@H]2CC[C@H](O[C@@H]3CCOC3)CC2)[C@@H](C)C1` (single isomer, unassigned) [Compound 307, 5-(3,3-Dimethyl-but-1-ynyl)-3-{(4,6S-dimethyl-cyclohex-3-enecarbonyl)-[4-(tetrahydro-furan-3R-yloxy)-trans-cyclohexyl]-amino}-thiophene-2-carboxylic acid] showed an inhibition at 2 µM of 100%.
In the case of `CC(C)(C)C#Cc1cc(N(C(=O)[C@H]2CC[C@H](C)CC2)[C@H]2CC[C@H](Oc3ccccn3)CC2)c(C(=O)O)s1` [Compound 1, 5-(3,3-Dimethyl-but-1-ynyl)-3-{(trans-4-methyl-cyclohexanecarbonyl)-[trans-4-(pyridin-2-yloxy)-cyclohexyl]-amino}-thiophene-2-carboxylic acid], the inhibition at 2 µM is reported as 99.8%.
With `CC(C)(C)C#Cc1cc(N(C(=O)[C@H]2CC[C@H](C)CC2)[C@H]2CC[C@H](Oc3cnccn3)CC2)c(C(=O)O)s1` [Compound 2, 5-(3,3-Dimethyl-but-1-ynyl)-3-{(trans-4-methyl-cyclohexanecarbonyl)-[trans-4-(pyrazin-2-yloxy)-cyclohexyl]-amino}-thiophene-2-carboxylic acid] the inhibition at 2 µM was 99.6%.
`Cc1ccc(O[C@H]2CC[C@H](N(c3cc(C#CC(C)(C)C)sc3C(=O)O)C(=O)[C@H]3CC[C@H](C)CC3)CC2)nn1` [Compound 3, 5-(3,3-Dimethyl-but-1-ynyl)-3-{(trans-4-methyl-cyclohexanecarbonyl)-[trans-4-(6-methyl-pyridazin-3-yloxy)-cyclohexyl]-amino}-thiophene-2-carboxylic acid] was tested, and the inhibition at 2 µM was 100%.
`CC(C)(C)C#Cc1cc(N(C(=O)[C@H]2CC[C@H](C)CC2)[C@H]2CC[C@H](Oc3ncccn3)CC2)c(C(=O)O)s1` [Compound 4, 5-(3,3-Dimethyl-but-1-ynyl)-3-{(trans-4-methyl-cyclohexanecarbonyl)-[trans-4-(pyrimidin-2-yloxy)-cyclohexyl]-amino}-thiophene-2-carboxylic acid] gave an inhibition at 2 µM of 99.9%.
Work on `CC(C)(C)C#Cc1cc(N(C(=O)[C@H]2CC[C@H](C)CC2)[C@H]2CC[C@H](Oc3cccnc3)CC2)c(C(=O)O)s1` [Compound 5, 5-(3,3-Dimethyl-but-1-ynyl)-3-{(trans-4-methyl-cyclohexanecarbonyl)-[trans-4-(pyridin-3-yloxy)-cyclohexyl]-amino}-thiophene-2-carboxylic acid] yielded an inhibition at 2 µM of 99.8%.
`CC(C)(C)C#Cc1cc(N(C(=O)[C@H]2CC[C@H](C)CC2)[C@H]2CC[C@H](Oc3cccc(S(C)(=O)=O)n3)CC2)c(C(=O)O)s1` [Compound 6, 5-(3,3-Dimethyl-but-1-ynyl)-3-[[trans-4-(6-methanesulfonyl-pyridin-2-yloxy)-cyclohexyl]-(trans-4-methyl-cyclohexanecarbonyl)-amino]-thiophene-2-carboxylic acid] showed an inhibition at 2 µM of 99.9%.
`Cc1ccc(O[C@H]2CC[C@H](N(c3cc(C#CC(C)(C)C)sc3C(=O)O)C(=O)[C@H]3CC[C@H](C)CC3)CC2)cn1` [Compound 7, 5-(3,3-Dimethyl-but-1-ynyl)-3-{(trans-4-methyl-cyclohexanecarbonyl)-[trans-4-(6-methyl-pyridin-3-yloxy)-cyclohexyl]-amino}-thiophene-2-carboxylic acid] showed an inhibition at 2 µM of 99.8%.
`Cc1cccc(O[C@H]2CC[C@H](N(c3cc(C#CC(C)(C)C)sc3C(=O)O)C(=O)[C@H]3CC[C@H](C)CC3)CC2)n1` [Compound 8, 5-(3,3-Dimethyl-but-1-ynyl)-3-{(trans-4-methyl-cyclohexanecarbonyl)-[trans-4-(6-methyl-pyridin-2-yloxy)-cyclohexyl]-amino}-thiophene-2-carboxylic acid] showed an inhibition at 2 µM of 96.7%.
`CC(C)(C)C#Cc1cc(N(C(=O)[C@H]2CC[C@H](C)CC2)[C@H]2CC[C@H](Oc3ccc(C#N)cn3)CC2)c(C(=O)O)s1` [Compound 9, 3-[[trans-4-(5-Cyano-pyridin-2-yloxy)-cyclohexyl]-(trans-4-methyl-cyclohexanecarbonyl)-amino]-5-(3,3-dimethyl-but-1-ynyl)-thiophene-2-carboxylic acid] showed an inhibition at 2 µM of 99.3%.
`CC(C)(C)C#Cc1cc(N(C(=O)[C@H]2CC[C@H](C)CC2)[C@H]2CC[C@H](Oc3ccc(C(F)(F)F)cn3)CC2)c(C(=O)O)s1` [Compound 10, 5-(3,3-Dimethyl-but-1-ynyl)-3-{(trans-4-methyl-cyclohexanecarbonyl)-[trans-4-(5-trifluoromethyl-pyridin-2-yloxy)-cyclohexyl]-amino}-thiophene-2-carboxylic acid] showed an inhibition at 2 µM of 56.2%.

Same assay, conditions: Huh-7 HCV replicon cells, 3 days incubation
“5-(3,3-Dimethyl-but-1-ynyl)-3-{(trans-4-methyl-cyclohexanecarbonyl)-[trans-4-(1-oxy-pyridin-3-yloxy)-cyclohexyl]-amino}-thiophene-2-carboxylic acid [Compound 24]” was tested, and the “% inhibition at 2μM” value was 99.9%.
With “5-(3,3-dimethylbut-1-ynyl)-3-((1r,4R)-4-methyl-N-((1s,4S)-4-(oxetan-3-yloxy)cyclohexyl)cyclohexanecarboxamido)-5-(2-(1-(trifluoromethyl)cyclopropyl)ethynyl)thiophene-2-carboxylic acid [Compound 347]” the “% inhibition at 2μM” value was 99.97%.
In the case of `CC1=CCC(C(=O)N(c2cc(C#CC(C)(C)C)sc2C(=O)O)[C@H]2CC[C@H](O[C@@H]3CCOC3)CC2)[C@H](C)C1` (single isomer, unassigned) [Compound 306, 5-(3,3-Dimethyl-but-1-ynyl)-3-{(4,6R-dimethyl-cyclohex-3-enecarbonyl)-[4-(tetrahydro-furan-3R-yloxy)-trans-cyclohexyl]-amino}-thiophene-2-carboxylic acid], the “% inhibition at 2μM” value is reported as 99.99%.
With `CC1=CCC(C(=O)N(c2cc(C#CC(C)(C)C)sc2C(=O)O)[C@H]2CC[C@H](O[C@@H]3CCOC3)CC2)[C@@H](C)C1` (single isomer, unassigned) [Compound 308, 5-(3,3-Dimethyl-but-1-ynyl)-3-{(4,6S-dimethyl-cyclohex-3-enecarbonyl)-[4-(tetrahydro-furan-3R-yloxy)-trans-cyclohexyl]-amino}-thiophene-2-carboxylic acid] the “% inhibition at 2μM” value was 99.99%.

Source: patent US8569302B2, “Inhibitors of flaviviridae viruses” (Gilead Sciences, Inc., priority 2009, dated 2013)
